According to patent US20180265867A1, “NUCLEIC ACID MOLECULES WITH ENHANCED ACTIVITY” (priority 2015, published 2018):
d = 2'-deoxy (DNA); r = 2'-OH (RNA)

What follows are substances tested on MG63 cells (assay: Fluorescence / confocal microscopy of cellular distribution in MG63 cells). Details: fluorescently labelled, transfection reagent free.
Type: cell-based, human
Method: Cellular uptake experiments were performed by plating cells (1×10^4) in an 8 well chamber slide. At 70% confluency, the cells were transfected with 50 nM Cy3-cpRNA and incubated at 37° C. for 24 h. Control wells were left untreated. Each transfection was performed in triplicate. […] The slides were mounted using Vectashield mounting medium containing 4′, 6-diamidino-2-phenylindole (DAPI) (Vector Labs, Burlingame, Calif.) to stain the nuclei of cells.
MG63—human osteosarcoma cells were cultured in α-MEM (Sigma-Aldrich, Haverhill, UK) medium containing 10% FBS, 1% L-Glutamine, and 1% antibiotics (PeSt) at 37° C. with 5% CO2. One day prior to the siRNA treatment, 35,000 cells were plated per each well of a 24-well plate. On the experiment day, cells were replaced with 10% heat inactivated-FBS containing α-MEM medium with 1% L-Glutamine, and 1% antibiotics (PeSt). Fluorescently (Cy3) labelled CP-siRNA and nicked CP-siRNA having GAPDH targeting sequence (final concentration: 50 nM) was given to the each well. After 24 hours the cells were washed with PBS and fixed with 4% formaldehyde for 20 mins at room temperature and then washed twice with PBS. DAPI (1 ug/ml in PBS) was added to cells for 5 mins and then washed with PBS. The cells were then visualized in Nikon TiU at 20×+1.5× and analysed with the Nikon Imaging software.

Row | Substance | cellular distribution
1 | CP-siRNA: GAPDH CP-siRNA, sense SEQ ID NO: 26 with dT5, antisense SEQ ID NO: 27; Cy3 labelled for imaging (sense CCGAGCCACAUCGCUCAGATTTTT; antisense UCUGAGCGAUGUGGCUCGGTT; sense: sugars from the 5' end r19 d5, backbone not given here; antisense: sugars from the 5' end r19 d2, backbone not given here; Cy3 label) | perinuclear distribution
2 | nicked CP-siRNA: Nicked GAPDH CP-siRNA, sense SEQ ID NO: 28, nicked antisense sequences a and b SEQ ID NO: 29 and 30 (sense CCGAGCCACAUCGCUCAGATTTTT; antisense 1 UCUGAGCGAU; antisense 2 GUGGCUCGG; sense: sugars from the 5' end r19 d5, backbone not given here; antisense 1: RNA, backbone not given here; antisense 2: RNA, backbone not given here; further chemistry not fully specified) | some nuclear localization

Each substance was assayed on 3p or 5p miR34a target-site in 3′ UTR of Renilla luciferase (assay: Dual glo assay of miR34a strand selection in HCT116 cells). Details: 50 nM miRNA, 300 ng plasmid, RNAiMAX, 24 h.
Type: cell-based, human
Method: For all experiments RNAiMAX was used for transfection of both plasmid and miRNA in accordance with manufacturer's instructions, but with altered RNA and plasmid concentrations. For Dual glo assay, cells were co-transfected with 50 nM miRNA and 300 ng plasmid. For qPCR cells were transfected with 100 nM miRNA.
HCT116 cells were seeded 10000 cells per well in a 96 well plate and transfected with both plasmid and miRNA 24 hours later. All transfections were performed in triplicates. The plasmids used were the dual luciferase reporter plasmid with either a 3p or 5p miR34a target-site cloned into the 3′ UTR (denoted plasmid 3 or plasmid 5). After 24 hours 75 μl of Dual glo firefly substrate (Promega) was added to each well. 100 μl of cell-lysate was moved to a microtiter plate after 10 minutes of incubation and luminescence was measured and it was followed by addition of 75 μl of Stop glo Renilla substrate (Promega) to the same plate and luminescence was measured again after 10 minutes of incubation. The Renilla luminescence values were normalized against the firefly luminescence values and expressed as a percentage of the negative control, a scrambled non-functional miRNA.
Dual glo assay and RT-qPCR were performed to identify the degree of strand selection of the modified miRNA. First, we designed two different plasmids (psiCheck2 vector) such that miRNA target-sequence (3p or 5p) is cloned into the 3′-UTR of the Renilla luciferase gene (see FIG. 16) with firefly luciferase as the internal control to normalize the Renilla luciferase expression. We estimated the levels of the individual strand recruitment (3p or 5p) using the dual-glo luminesce assay. The target-sequence corresponds exactly to either the 3p or 5p strands, and a change in luminescence can be directly attributed to the gene silencing efficiency.
Four independent trials of dual glo assay were performed, with each of the samples in triplicates. Luminescence is shown as a percentage of the scrambled miRNA which serves as the negative control. Two different modifications were used on each of the strands of the miR34a (see Table 5). The miR34a was modified to make the 5p strand the guide strand by incorporating three deoxy thymidine residues at the 3′ end of the 3p strand (mod5a).

Row | Substance | strand selection (Dual glo luminescence)
3 | mod3b: miR34a with five deoxy thymidines added to 3′ end of 5p strand, SEQ ID NO: 20 and 36 (chain 1 CAAUCAGCAAGUAUACUGCCCU; chain 2 UGGCAGUGUCUUAGCUGGUUGUTTTTT; chain 1: RNA, backbone not given here; chain 2: sugars from the 5' end r22 d5, backbone not given here) | slight increase in strand selection but this was not statistically significant
4 | mod3a: miR34a with three deoxy thymidines added to 3′ end of 5p strand, SEQ ID NO: 20 and 35 (chain 1 CAAUCAGCAAGUAUACUGCCCU; chain 2 UGGCAGUGUCUUAGCUGGUUGUTTT; chain 1: RNA, backbone not given here; chain 2: sugars from the 5' end r22 d3, backbone not given here) | slight increase in strand selection but this was not statistically significant
5 | mod5a: miR34a with three deoxy thymidines added to 3′ end of 3p strand, SEQ ID NO: 37 and 21 (chain 1 CAAUCAGCAAGUAUACUGCCCUTTT; chain 2 UGGCAGUGUCUUAGCUGGUUGU; chain 1: sugars from the 5' end r22 d3, backbone not given here; chain 2: RNA, backbone not given here) | 3p strand being less chosen as the guide strand
6 | mod5b: miR34a with five deoxy thymidines added to 3′ end of 3p strand, SEQ ID NO: 38 and 21 (chain 1 CAAUCAGCAAGUAUACUGCCCUTTTTT; chain 2 UGGCAGUGUCUUAGCUGGUUGU; chain 1: sugars from the 5' end r22 d5, backbone not given here; chain 2: RNA, backbone not given here) | 3p strand being less chosen as the guide strand
